Here are results for 24 compounds from patent US20110046090A1 (BrainCells Inc., priority 2005, published 2011).

Broadly, the pEC50 is the EC50 on a negative log10 scale, so that one unit is a factor of ten. As a reminder, the pIC50 is the negative decadic logarithm of the IC50, by convention in mol/L.

Series [1] deals with human neural stem cells (hNSCs). In words: neuronal differentiation of cultured human neural stem cells (TUJ-1 staining), agents alone and in combination.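 On all read-outs here: cells kept in mitogen-free test media, with growth-factor-free basal medium as the negative control.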 The following applies: for pEC50: % of neuronal positive control, basal media subtracted; for effect on differentiation of hNSCs along a neuronal lineage, agent alone: dose-response, normalized to neuronal positive control.
Description: The presence of synergy was determined by use of a combination index (CI). […] The CI is a quantitative measure of the nature of drug interactions, comparing the EC50's of two compounds, when each is assayed alone, to the EC50 of each compound when assayed in combination. The combination index (CI) is equal to the following formula:
where C1 and C2 are the concentrations of a first and a second compound, respectively, resulting in 50% activity in neuronal differentiation when assayed in combination; and IC1 and IC2 are the concentrations of each compound resulting in 50% activity when assayed independently.
A further series deals with human mGlu3 receptors (Homo sapiens, UniProt Q14832). The following applies: in vitro; e.g., below about 10 nM, or below about 5 nM; cited from earlier work.
human mGlu3 receptors, sequence (Q14832 23-879): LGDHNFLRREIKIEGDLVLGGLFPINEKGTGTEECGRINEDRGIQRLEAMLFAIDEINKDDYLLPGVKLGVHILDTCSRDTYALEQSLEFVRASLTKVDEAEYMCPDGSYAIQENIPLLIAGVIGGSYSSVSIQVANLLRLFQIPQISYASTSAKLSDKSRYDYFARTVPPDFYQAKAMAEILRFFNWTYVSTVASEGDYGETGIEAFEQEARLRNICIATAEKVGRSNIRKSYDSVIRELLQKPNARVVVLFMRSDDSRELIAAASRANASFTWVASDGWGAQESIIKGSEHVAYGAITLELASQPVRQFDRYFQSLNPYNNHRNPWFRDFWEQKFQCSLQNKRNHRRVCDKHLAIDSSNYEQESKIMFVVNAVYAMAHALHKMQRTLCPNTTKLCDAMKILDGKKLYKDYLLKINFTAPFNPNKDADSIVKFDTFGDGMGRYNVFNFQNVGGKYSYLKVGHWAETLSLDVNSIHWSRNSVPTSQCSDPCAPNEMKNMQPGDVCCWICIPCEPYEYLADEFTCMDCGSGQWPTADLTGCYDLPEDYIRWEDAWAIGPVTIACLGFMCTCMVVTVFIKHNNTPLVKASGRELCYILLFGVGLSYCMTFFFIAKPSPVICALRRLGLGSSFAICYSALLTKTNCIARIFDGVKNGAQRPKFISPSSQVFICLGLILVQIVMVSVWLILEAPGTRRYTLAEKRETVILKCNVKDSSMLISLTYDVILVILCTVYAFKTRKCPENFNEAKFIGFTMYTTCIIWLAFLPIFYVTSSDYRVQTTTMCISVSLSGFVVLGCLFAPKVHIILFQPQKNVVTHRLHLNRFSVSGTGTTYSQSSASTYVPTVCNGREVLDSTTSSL
A further series concerns the target human mGlu2 receptors (Homo sapiens, UniProt Q14416). The following applies: in vitro; e.g., below about 10 nM, or below about 5 nM; cited from earlier work.
In a further series the target is mGluR3 (Homo sapiens, UniProt Q14832). The following applies: cited from earlier work.
mGluR3, sequence (Q14832 23-879): as above
Another series has as its target mGluR2 (Homo sapiens, UniProt Q14416). The following applies: cited from earlier work.
For another series, the system named is Male Fischer F344 rats. In words: novelty suppressed feeding antidepressant/anxiolytic assay. The format is in vivo, rat. The following applies: oral gavage once daily for 21 days, compounds given two hours prior to testing, 5.0 mg/kg each. Here is the method:
Male Fischer F344 rats were administered test compound(s)+vehicle or vehicle only (negative control) by oral gavage once daily for 21 days and evaluated for antidepressant/anxiolytic activity in the novelty suppressed feeding assay as follows. Twenty-four hours prior to behavioral testing, all food was removed from the home cage. At the time of testing a single pellet was placed in the center of a novel arena. Animals were placed in the corner of the arena and latency to eat the pellet was recorded. Compounds were administered two hours prior to testing. A decreased latency to eat the food pellet is indicative of both neurogenesis and antidepressant activity.

The conditions of series [2]: in vivo; cited from earlier work.
The conditions of series [3]: cited from earlier work.
Series [4] deals with human neural stem cells (hNSCs). In words: toxicity on human neural stem cells (cell count, nuclear dye Hoechst 33342). The class given is cell-based. The following applies: concentrations up to 100 μM; toxic doses fall below 80% of basal cell count. As for the experimental part:
Data is shown as a percent of the basal media cell count. Toxic doses typically fall below 80% of the basal cell count.
Experiments were carried out as described in Example 1, except that the positive control contained basal media only, and cells were stained with nuclear dye (Hoechst 33342).

For series [5] the test system is unchanged. Nature of the series: growth of individual neurospheres comprising hNSCs (proliferation). The format is cell-based. The following applies: 1 μM, 10 μM and 30 μM; percent increase over basal neurosphere size as a function of time. Here is the method: Results are shown as a percent increase over the basal neurosphere size. Negative control (open circles) is basal media without compound, and positive control (open squares) is basal media with a known proliferative agent.
FIG. 7 is a time-response curve showing the effect of 1 μM (solid diamonds), 10 μM (solid squares), and 30 μM (solid circles) concentrations of baclofen on the growth of individual neurospheres comprising human neural stem cells (hNSCs) as a function of time. Results are shown as a percent increase over the basal neurosphere size. Negative control (open circle) is basal media without compound, and positive control (open square) is basal media with a known proliferative agent.

For series [6] the test system is unchanged. Nature of the series: astrocyte differentiation of cultured human neural stem cells (GFAP staining). The format is cell-based. Conditions: dose-response, normalized to astrocyte positive control.
Description: Mitogen-free test media with a positive control for neuronal differentiation, mitogen-free test media with 50 ng/ml BMP-2, 50 ng/ml LIF and 0.5% FBS served as a positive control for astrocyte differentiation, and basal media without growth factors served as a negative control.
In a further series the test system is Male Fisher F344 rats. In words: chronic dosing of rats: proliferation and differentiation of neural cells in the dentate gyrus (BrdU). The format is in vivo, rat. Conditions: for increase in differentiation of neural progenitor cells into mature neurons, subgranular zone of dentate gyrus: chronic treatment. Here is the method: Male Fisher F344 rats were injected with varying doses of baclofen as a test compound with vehicle, or vehicle only (negative control), once daily for twenty eight days. Rats were injected once daily with 100 mg/kg BrdU on days 9-14 of test compound administrations. Rats were then anesthetized and killed by transcardial perfusion of 4% paraformaldehyde at day 28. Brains were rapidly removed and stored in 4% paraformaldehyde for 24 hours and then equilibrated in phosphate buffered 30% sucrose. Free floating 40 micron sections were collected on a freezing microtome and stored in cryoprotectant. Antibodies against BrdU and cell types of interest (e.g., neurons, astrocytes, oligodendrocytes, endothelial cells) were used for detection of cell differentiation.
Briefly, tissues were washed (0.01 M PBS), endogenous peroxidase blocked with 1% hydrogen peroxide, and incubated in PBS (0.01 M, pH 7.4, 10% normal goat serum, 0.5% Triton X-100) for 2 hours at room temperature. Tissues were then incubated with primary antibody at 4° C. overnight. The tissues were rinsed in PBS followed by incubation with biotinylated secondary antibody (1 hour at room temperature). Tissues were further washed with PBS and incubated in avidin-biotin complex kit solution at room temperature for 1 hour. Various fluorophores linked to streptavidin were used for visualization. Tissues were washed with PBS, briefly rinsed in dH2O, serially dehydrated and coverslipped. Cell counting and unbiased stereology was limited to the hippocampal granule cell layer proper and one 50 um border along the hilar margin that includes the neurogenic subgranular zone. The proportion of BrdU cells displaying a lineage-specific phenotype was determined by scoring the co-localization of cell phenotype markers with BrdU using confocal microscopy. Split panel and z-axis analysis were used for all counting. All counts were performed using multi-channel configuration with a 40× objective and electronic zoom of 2. When possible, 100 or more BrdU-positive cells were scored for each marker per animal. Each cell was manually examined in first full “z”-dimension and only those cells for which the nucleus is unambiguously associated with the lineage-specific marker were scored as positive.
The total number of BrdU-labeled cells per hippocampal granule cell layer and subgranule zone were determined using diaminobenzidine stained tissues. Over-estimation was corrected using the Abercrombie method for nuclei with empirically determined average diameter of 13 um within a 40 um section.

[7] abbreviates: Homo sapiens, Neural stem cell, read-out: EC50 for neuronal differentiation, agent alone, compound run individually.
Setting [8] is: read-out: EC50 for neuronal differentiation, agent alone, compound run individually.

The structures appear in SMILES notation. pEC50, pIC50: −log10 of the molar value. Several values for one entry are separate records, joined by “and”; a condition that tells them apart may be missing. Identical values can stand only once. Entries after “also recorded” stand apart in the source; their conditions may differ. Like-named read-outs stand apart in the source and are kept apart here. A value given as a limit tells only on which side of the number the result lay.

human mGlu2 receptors, sequence (Q14416 19-872): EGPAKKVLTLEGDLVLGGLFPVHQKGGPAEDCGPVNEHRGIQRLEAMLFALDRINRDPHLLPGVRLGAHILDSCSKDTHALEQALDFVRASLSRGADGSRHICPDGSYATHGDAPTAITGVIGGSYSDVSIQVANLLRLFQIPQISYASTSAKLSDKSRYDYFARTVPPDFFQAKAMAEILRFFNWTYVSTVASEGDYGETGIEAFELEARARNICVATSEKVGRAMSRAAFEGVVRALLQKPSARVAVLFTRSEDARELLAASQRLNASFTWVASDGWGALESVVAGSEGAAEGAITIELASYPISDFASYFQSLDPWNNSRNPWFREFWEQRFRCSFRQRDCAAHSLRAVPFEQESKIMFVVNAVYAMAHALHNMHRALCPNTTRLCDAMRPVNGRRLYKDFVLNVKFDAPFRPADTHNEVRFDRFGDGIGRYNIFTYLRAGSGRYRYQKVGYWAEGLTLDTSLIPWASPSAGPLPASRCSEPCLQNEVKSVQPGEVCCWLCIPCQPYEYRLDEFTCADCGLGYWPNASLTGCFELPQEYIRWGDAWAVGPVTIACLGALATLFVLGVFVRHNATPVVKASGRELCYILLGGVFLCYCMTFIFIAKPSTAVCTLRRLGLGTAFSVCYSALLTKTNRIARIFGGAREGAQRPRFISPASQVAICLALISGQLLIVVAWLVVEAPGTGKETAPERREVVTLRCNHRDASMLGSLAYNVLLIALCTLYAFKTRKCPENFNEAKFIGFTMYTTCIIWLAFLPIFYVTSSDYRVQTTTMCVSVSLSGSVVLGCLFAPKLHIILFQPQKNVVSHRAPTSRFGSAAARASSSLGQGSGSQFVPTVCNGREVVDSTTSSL
mGluR2, sequence (Q14416 19-872): as above

Turning to `COC(=O)[C@@H]1[C@H]2C[C@H]3c4[nH]c5ccccc5c4CCN3C[C@@H]2CC[C@@H]1O` [yohimbine], in series [1] (setting [7]), the pEC50 was 5.71.

Turning to `N[C@@]1(C(=O)O)CO[C@H]2[C@H](C(=O)O)[C@H]21` [LY379268, (−)-2-Oxa-4-aminobicyclohexane-4,6-dicarboxylic acid], the EC50 entry on human mGlu3 receptors and at human mGlu2 receptors was “low nanomolar range” in each case.

As to `NC1(C(=O)O)CCc2cc(P(=O)(O)O)ccc21` (racemic) [APICA, (RS)-1-amino-5-phosphonoindan-1-carboxylic acid], the negative logarithm of the IC50 (pIC50) at mGluR3 and on mGluR2 was approximately 4.52 throughout.

Regarding `CCOC(=O)[C@H](CCc1ccccc1)N[C@H]1CCc2ccccc2N(CC(=O)O)C1=O` [benazepril], the pEC50 in series [1] (setting [7]) was 5.26.

As to `CCOc1nc2cccc(C(=O)O)c2n1Cc1ccc(-c2ccccc2-c2nnn[nH]2)cc1` [candesartan], the “antidepressant and anxiolytic effects in novelty suppressed feeding” value in the series on Male Fischer F344 rats is listed as “no effects”. For the same compound, the figures for the pEC50 in series [1] (setting [7]) and in [1] (setting [8]) were 5.93 and 5.88, respectively.

On to `CCCCc1nc(Cl)c(CO)n1Cc1ccc(-c2ccccc2-c2nn[nH]n2)cc1` [losartan], for which the pEC50 in series [1] (setting [7]) was 6.51.

As for `O=C1CC[C@@]2(O)[C@H]3Cc4ccc(O)c5c4[C@@]2(CCN3CC2CC2)[C@H]1O5` [naltrexone], the pEC50 in series [1] (setting [7]) is 5.14.

On to `NCC1(CC(=O)O)CCCCC1` [gabapentin, Gabapentin], for which the pEC50 in [1] (setting [8]) is 6.17 and 5.36 and 5.58.

`CCCCN(CC)c1nc(C)nc2c1c(C)c(C)n2-c1c(C)cc(C)cc1C` [antalarmin]: the pEC50 in series [1] (setting [7]) is 5.63.

For `Clc1ccc2c(c1)N=C(N1CCNCC1)c1ccccc1N2` [N-desmethylclozapine], the pEC50 in series [1] (setting [8]) was less than 4.00.

Take `CC(C)C[C@H](CN)CC(=O)O` [pregabalin, (S)-(+)-3-isobutylgaba]: in the series on Male Fischer F344 rats, the “antidepressant and anxiolytic effects in novelty suppressed feeding” value was “no effects”. Besides, the negative logarithm of the EC50 (pEC50) in [1] (setting [8]) was 6.24 and 5.47 and 5.38.

For `NC(=O)c1ncn([C@@H]2O[C@H](CO)[C@@H](O)[C@H]2O)n1` [ribaviran, ribavirin], the negative-log EC50 (pEC50) in series [1] (setting [7]) is 5.21.

For `C[C@H](CS)C(=O)N1CCC[C@H]1C(=O)O` [captopril], the negative logarithm of the EC50 (pEC50) in series [1] (setting [7]) is 5.42.

Take `NCCCC[C@H](N[C@@H](CCc1ccccc1)C(=O)O)C(=O)N1CCC[C@H]1C(=O)O` [lisinopril]: the pEC50 in [1] (setting [7]) was 5.42.

Regarding `O=C(O)[C@@H]1C[C@@H](C2CCCCC2)CN1C(=O)CP(=O)(O)CCCCc1ccccc1` [fosinoprilat], the negative logarithm of the EC50 (pEC50) in [1] (setting [7]) is 5.48.

Take `NC(=O)C[S+]([O-])C(c1ccccc1)c1ccccc1` (stereo not drawn) [modafinil]: the negative-log EC50 (pEC50) in series [1] (setting [7]) is 5.46.

Consider `CCCCc1ncc(/C=C(\Cc2cccs2)C(=O)O)n1Cc1ccc(C(=O)O)cc1` [eprosartan], for which, in series [1] (setting [7]), the pEC50 is 7.52.

In the case of `C[C@H](N[C@@H](CCc1ccccc1)C(=O)O)C(=O)N1Cc2ccccc2C[C@H]1C(=O)O` [quinaprilat, Quinaprilat], in [1] (setting [7]), the negative logarithm of the EC50 (pEC50) is 5.62.

As for `COCCCOc1cc(C[C@@H](C[C@H](N)[C@@H](O)C[C@H](C(=O)NCC(C)(C)C(N)=O)C(C)C)C(C)C)ccc1OC` [aliskiren, (2S,4S,5S,7S)-5-amino-N-(2-carbamoyl-2-methyl-propyl)-4-hydroxy-7-{[4-methoxy-3-(3-methoxypropoxy)phenyl]methyl}-8-methyl-2-propan-2-yl-nonanamide], in series [2], the plasma half-life entry is “≈ 24 hours”. In addition, in series [1] (setting [7]), the pEC50 is 5.55. In addition, the water solubility entry in [3] is “good water solubility”.

In the case of `NCC(CC(=O)O)c1ccc(Cl)cc1` (stereo not drawn) [baclofen, Baclofen], the “toxicity on hNSCs (cell count as percent of basal media cell count)” value in series [4] is on record as “Neither GABA nor baclofen exhibited toxicity; also recorded: did not exhibit significant toxicity”. Moreover, the pEC50 was 5.42 in series [1] (setting [7]) and 5.49 in series [1] (setting [8]). The figures for the “effect on differentiation of hNSCs along a neuronal lineage, agent alone” value in series [1] and in series [1] (listed as Baclofen) were “significant enhancement” and “promoted neuronal differentiation”, respectively. For the same compound, the “effect on neurosphere growth / cell proliferation” value in series [5] is listed as “positive effect on cell proliferation”. Also, the entries for the “effect on differentiation of hNSCs along an astrocyte lineage” value in [6] and in series [6] (listed as Baclofen) were “did not exhibit a significant effect on astrocyte differentiation” and “no detectable effect”, respectively. Besides, the “increase in differentiation of neural progenitor cells into mature neurons, subgranular zone of dentate gyrus” value in the series with Male Fisher F344 rats (0.75 mg/kg/day) stood at 8%; with Male Fisher F344 rats (1.50 mg/kg/day), 5%. Besides, the “neural cell proliferation within the dentate gyrus (mean number of BrdU-positive cells)” value in the series with Male Fisher F344 rats (injection once daily for twenty eight days, 0.75 and 1.50 mg/kg) is on record as “dose-related increase in proliferation”. Moreover, the “neurogenic effects in vivo” value with Male Fisher F344 rats (once daily for twenty eight days) is given as “produces neurogenic effects with a rapid onset of action”.

As for `CCC[C@H](N[C@@H](C)C(=O)N1[C@H](C(=O)O)C[C@@H]2CCCC[C@@H]21)C(=O)O` [perindoprilat, Perindoprilat], the pEC50 in series [1] (setting [7]) was 5.46.

For `CC(C)c1c(C(=O)Nc2ccccc2)c(-c2ccccc2)c(-c2ccc(F)cc2)n1CC[C@@H](O)C[C@@H](O)CC(=O)O` [atorvastatin], the pEC50 in series [1] (setting [7]) is 8.52.

For the compound `CCCc1nc2c(C)cc(-c3nc4ccccc4n3C)cc2n1Cc1ccc(-c2ccccc2C(=O)O)cc1` [telmisartan], the pEC50 in [1] (setting [7]) is 7.70.

For `NCCCC(=O)O` [GABA], in series [4], the “toxicity on hNSCs (cell count as percent of basal media cell count)” value is on record as “Neither GABA nor baclofen exhibited toxicity; also recorded: did not exhibit significant toxicity”. For the same compound, in [1], the “effect on differentiation of hNSCs along a neuronal lineage, agent alone” value is given as “promoted neuronal differentiation; also recorded: significant enhancement”. In series [5], the “effect on neurosphere growth / cell proliferation” value is “positive effect on cell proliferation”. The “effect on differentiation of hNSCs along an astrocyte lineage” value in series [6] is given as “no detectable effect; also recorded: did not exhibit a significant effect on astrocyte differentiation”.
